Assay results: patent US20240417410A1, “TRICYCLIC COMPOUNDS FOR THE TREATMENT OF CANCER” (Hoffmann-La Roche Inc., priority 2023, published 2024)

Experiments:
[1] = system: phosphorylation of ERK, KRAS G12V in SW620; assay: pERK inhibition assay; assay type: cell-based; settings: Homo sapiens, SW-620, 4 h, SW620 cells
How it was run: (§1)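 NCI-H358 (KRAS G12C), AGS (G12D) and SW620 (G12V) cells plated overnight, then treated with compound for 4 h in 0.5% DMSO. After fixing and methanol permeabilisation, phospho-ERK was detected by in-cell ELISA (HRP/TMB, OD450). IC50 from a 4-parameter sigmoidal fit.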

[2] = system: phosphorylation of ERK, KRAS G12C in NCI-H358 cells; assay: pERK inhibition assay; assay type: cell-based; settings: Homo sapiens, NCI-H358, 4 h
How it was run: as §1

[3] = system: phosphorylation of ERK, KRAS G12D in AGS cells; assay: pERK inhibition assay; assay type: cell-based; settings: Homo sapiens, AGS, 4 h
How it was run: as §1

KRAS G12C-BRAF complex = KRAS G12C-BRAF complex (Homo sapiens (Human), UniProt P01116+P62937, G12C); assay: KRAS-BRAF with CYPA (500 nM) interaction assay (TR-FRET, Example 136); assay type: biochemical; settings: KRAS G12C-BRAF disruption
Chain of KRAS G12C-BRAF complex (P01116-2 other isoform, or with tags, fused parts or gaps G12C): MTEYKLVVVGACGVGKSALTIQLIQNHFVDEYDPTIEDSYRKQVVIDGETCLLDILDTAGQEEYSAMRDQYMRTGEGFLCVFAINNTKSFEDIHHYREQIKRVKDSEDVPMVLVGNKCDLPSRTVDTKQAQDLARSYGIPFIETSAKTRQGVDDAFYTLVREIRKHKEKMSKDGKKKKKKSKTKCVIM
Chain of KRAS G12C-BRAF complex (P62937 whole entry): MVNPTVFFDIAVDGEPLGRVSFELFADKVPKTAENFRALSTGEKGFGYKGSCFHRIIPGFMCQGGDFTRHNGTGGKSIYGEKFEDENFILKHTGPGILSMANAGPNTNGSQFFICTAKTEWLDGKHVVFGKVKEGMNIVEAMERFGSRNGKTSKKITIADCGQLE

AGS cells (KRAS G12D) = assay: Cell viability assay (Cell Counting Kit-8, 3-day); assay type: cell-based, human; settings: Homo sapiens, 72 h, 72 hrs incubation
How it was run: (§2)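 IC50 derived by 4-parameter sigmoidal fit of CCK-8 signal (OD450−OD650, 2 h development) after 72 h compound exposure in 0.5% DMSO. Seeding density was 5,000 cells/well for NCI-H358 and 2,000 cells/well for AGS and SW620, plated overnight before dosing.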

SW620 cells (KRAS G12V) = assay: Cell viability assay (Cell Counting Kit-8, 3-day); assay type: cell-based, human; settings: Homo sapiens, SW-620; SW620, 72 hrs incubation
How it was run: as §2

[4] = system: NCI-H358 cells (KRAS G12C); assay: Cell viability assay (Cell Counting Kit-8, 3-day); assay type: cell-based, human; settings: Homo sapiens, NCI-H358, 72 h, NCI-H358, 72 hrs incubation
How it was run: as §2

hERG potassium channel = hERG potassium channel (Homo sapiens (Human), UniProt Q12809); assay: hERG potassium channel assay (manual patch clamp, CHO cells); assay type: cell-based; settings: 34° C., manual patch, CHO cells
Chain of hERG potassium channel (Q12809 whole entry): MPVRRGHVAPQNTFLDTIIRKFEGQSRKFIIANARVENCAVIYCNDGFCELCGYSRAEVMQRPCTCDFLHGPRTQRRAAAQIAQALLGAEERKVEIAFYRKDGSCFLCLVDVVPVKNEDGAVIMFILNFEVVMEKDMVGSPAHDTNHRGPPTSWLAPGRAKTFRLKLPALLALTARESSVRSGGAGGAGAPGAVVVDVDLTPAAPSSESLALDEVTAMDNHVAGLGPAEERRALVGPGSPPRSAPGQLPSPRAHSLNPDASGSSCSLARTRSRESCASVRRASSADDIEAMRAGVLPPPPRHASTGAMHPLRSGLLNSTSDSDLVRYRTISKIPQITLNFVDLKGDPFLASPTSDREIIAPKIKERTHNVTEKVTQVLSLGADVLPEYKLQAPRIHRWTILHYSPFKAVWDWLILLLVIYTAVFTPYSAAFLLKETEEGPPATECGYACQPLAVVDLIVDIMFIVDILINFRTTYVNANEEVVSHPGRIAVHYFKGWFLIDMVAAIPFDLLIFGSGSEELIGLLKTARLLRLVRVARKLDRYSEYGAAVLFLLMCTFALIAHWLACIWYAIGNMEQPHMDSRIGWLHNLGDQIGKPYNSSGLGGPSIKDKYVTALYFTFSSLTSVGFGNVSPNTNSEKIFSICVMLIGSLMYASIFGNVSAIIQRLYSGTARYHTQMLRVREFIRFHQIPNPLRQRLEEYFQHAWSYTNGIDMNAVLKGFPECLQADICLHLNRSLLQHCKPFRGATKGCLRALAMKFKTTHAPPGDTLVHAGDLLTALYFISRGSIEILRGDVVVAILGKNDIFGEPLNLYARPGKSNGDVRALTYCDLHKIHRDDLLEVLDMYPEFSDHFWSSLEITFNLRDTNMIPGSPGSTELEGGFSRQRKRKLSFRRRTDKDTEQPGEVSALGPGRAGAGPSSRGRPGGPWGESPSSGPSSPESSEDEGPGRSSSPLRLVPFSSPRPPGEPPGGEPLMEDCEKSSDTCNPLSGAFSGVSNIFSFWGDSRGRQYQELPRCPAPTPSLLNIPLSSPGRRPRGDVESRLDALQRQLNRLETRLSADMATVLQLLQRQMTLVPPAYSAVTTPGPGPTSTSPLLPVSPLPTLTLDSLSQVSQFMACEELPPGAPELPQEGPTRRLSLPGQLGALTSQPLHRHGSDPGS
Experimental: The purpose of the test was to screen compounds for the activity on hERG channels as a non-clinical cardiac safety evaluation.
Advanced hERG experiments were performed at near-physiological temperature (34° C.) by HEKA EPC10 manual patch system (heka elektronik, EPC10 amplifier). The CHO cells (B′SYS GmbH) stably transfected hERG channel were initially held at −80 mV, depolarized to voltages between −40 mV (100 ms) to 20 mV (500 ms) to activate the hERG outward currents, and then repolarized to −40 mV (500 ms) to record the hERG tail currents, with an interpulse interval of 15s. The recording environment included: Extracellular solution (in mM): 150 NaCl, 4 KCl, 1.2 CaCl2), 1 MgCl2 and 10 HEPES; pH adjusted to 7.2-7.4 with 5 M NaOH; Intracellular solution (in mM): 125 KCl, 10 NaCl, 5 EGTA, 10 HEPES, 0.1 Na2GTP and 5 MgATP; pH adjusted to 7.2 with 1 M KOH. Current inhibitions in the presence of more than 4 concentrations in quadruplicate were used to fit hERG IC50 by Graphpad prism V8.0.

KRAS G12V-BRAF complex = KRAS G12V-BRAF complex (Homo sapiens (Human), UniProt P01116+P62937, G12V); assay: KRAS G12V-BRAF with CYPA interaction assay (TR-FRET, selectivity test, Example 132); assay type: biochemical
Chain of KRAS G12V-BRAF complex (P01116-2 other isoform, or with tags, fused parts or gaps G12V): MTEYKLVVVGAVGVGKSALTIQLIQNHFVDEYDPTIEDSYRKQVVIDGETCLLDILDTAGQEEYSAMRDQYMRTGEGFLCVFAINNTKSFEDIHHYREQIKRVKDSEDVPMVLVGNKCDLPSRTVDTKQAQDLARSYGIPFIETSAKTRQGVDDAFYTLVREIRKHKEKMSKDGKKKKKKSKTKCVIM
Chain of KRAS G12V-BRAF complex (P62937 whole entry): as the sequence (P62937 whole entry) above
Experimental: (§3) In this example, TR-FRET was used to measure the compound or compound-CYPA dependent disruption of the KRAS G12V-BRAF complex to assess inhibition efficacy. The IC50 ratio between WT KRAS/HRAS/NRAS and KRAS G12V mutant was calculated as selective index, which indicated tolerability and safety profile. Disruption of WT KRAS/HRAS/NRAS-BRAF complex by compounds was detected respectively. In assay buffer containing 25 mM HEPES (PH-7.4,4-(2-hydroxyethyl)-1-piperazineethanesulfonic acid, Thermo, 15630080), 0.002% Tween20, 0.1% BSA, 100 mM NaCl, 5 mM MgCl2, 10 μM GMPPNP (Guanosine 5′-[β,γ-imido]triphosphate trisodium salt hydrate, Sigma, G0635), tagless CYPA and GMPPNP loaded 6His-RAS proteins, and GST-BRAF^RBD were mixed in a well of a 384-well assay plate at final concentrations of 50 nM, 6.25 nM and 1 nM, respectively. Compound was present in plate wells as a 16-point 3-fold dilution series starting at a final concentration of 10 μM and incubated for 3 hours. A mixture of MAb Anti-6His-XL665 (Cisbio, 61HISXLB) and Mab anti-GST-TB cryptate (Cisbio, 61GSTTLB) was then added at a final concentration of 6.67 nM and 0.21 nM, respectively, and the plate was incubated for an additional 1.5 hours. TR-FRET signal was read on a PHERstar FSX microplate reader (Ex320 nm, Em 665/615 nm). Compounds that facilitate disruption of the RAS-BRAF complex were identified as those eliciting a decrease in the TR-FRET ratio relative to DMSO control wells.

WT HRAS-BRAF complex = WT HRAS-BRAF complex (Homo sapiens (Human), UniProt P01112+P62937); assay: WT HRAS-BRAF with CYPA interaction assay (TR-FRET); assay type: biochemical; settings: WT HRAS
Chain of WT HRAS-BRAF complex (P01112 whole entry, looked up): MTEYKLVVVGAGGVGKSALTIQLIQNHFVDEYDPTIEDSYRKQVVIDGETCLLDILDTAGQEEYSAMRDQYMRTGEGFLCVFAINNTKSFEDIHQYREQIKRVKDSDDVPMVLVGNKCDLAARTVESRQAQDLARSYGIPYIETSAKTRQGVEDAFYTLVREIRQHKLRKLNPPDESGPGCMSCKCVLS
Chain of WT HRAS-BRAF complex (P62937 whole entry, looked up): as the sequence (P62937 whole entry) above
Experimental: as §3

[5] = Single dose pharmacokinetics (PK) study in female BALB/c mice; assay type: in vivo, mouse; settings: female, BALB/c, mouse, plasma, female BALB/c mice
Experimental: The purpose of this study was to determine the pharmacokinetics of selected compounds following single intravenous bolus or oral gavage administration in female BALB/c mice. Briefly, two groups of female BALB/c mice (available from Shanghai Lingchang Biotechnology Co., Ltd) (N=3/group) were treated with a single dose of compound intravenously at 3 mg/kg (IV) or orally at 30 mg/kg (PO). Blood samples were collected at 5 min (only for IV), […], 30 min, 1 h, 2 h, 4 h, 7 h and 24 h post-dose. Blood samples were placed on ice until centrifugation to obtain plasma samples. The concentration of compound in plasma samples was determined using LC-MS/MS method. The pharmacokinetic parameters were calculated by non-compartmental analysis.

WT KRAS-BRAF complex = WT KRAS-BRAF complex (Homo sapiens (Human), UniProt P01116+P62937); assay: WT KRAS-BRAF with CYPA interaction assay (TR-FRET); assay type: biochemical; settings: WT KRAS
Chain of WT KRAS-BRAF complex (P01116-2 whole entry, looked up): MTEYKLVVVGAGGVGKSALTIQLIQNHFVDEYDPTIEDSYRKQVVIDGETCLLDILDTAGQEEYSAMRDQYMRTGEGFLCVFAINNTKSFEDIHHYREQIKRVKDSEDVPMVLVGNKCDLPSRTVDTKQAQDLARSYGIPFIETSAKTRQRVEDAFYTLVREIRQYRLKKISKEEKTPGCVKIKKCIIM
Chain of WT KRAS-BRAF complex (P62937 whole entry, looked up): as the sequence (P62937 whole entry) above
Experimental: as §3

human hepatocytes = assay: Human hepatocyte stability assay; assay type: in vitro ADME; settings: 1 μM compound, human hepatocytes 1×10^6 cells/mL
Experimental: The hepatocyte stability assay measures the rate of disappearance of a compound from incubations with cryopreserved suspension hepatocytes from human. Positive controls, including Midazolam, Raloxifene and Dextromethorphan, are included in every experiment. Incubations consist of 1 μM tested compound and suspension of human hepatocytes (1×10^6 cells/mL) in supplemented Williams' E Medium with 10% FBS and 0.5% Penicillin-streptomycin. The hepatocyte suspension was incubated with intermittent shaking 900 rpm at 37° C., in a 5% CO2 incubator. The reaction was stopped by adding methanol containing internal standard (2 μM Tolbutamide) at 2, 10, 20, 40, 60 and 120 minutes after compound addition, depletion of the parent compound was monitored by LC-MS/MS analysis.

WT NRAS-BRAF complex = WT NRAS-BRAF complex (Homo sapiens (Human), UniProt P01111+P62937); assay: WT NRAS-BRAF with CYPA interaction assay (TR-FRET); assay type: biochemical; settings: WT NRAS
Chain of WT NRAS-BRAF complex (P01111 whole entry, looked up): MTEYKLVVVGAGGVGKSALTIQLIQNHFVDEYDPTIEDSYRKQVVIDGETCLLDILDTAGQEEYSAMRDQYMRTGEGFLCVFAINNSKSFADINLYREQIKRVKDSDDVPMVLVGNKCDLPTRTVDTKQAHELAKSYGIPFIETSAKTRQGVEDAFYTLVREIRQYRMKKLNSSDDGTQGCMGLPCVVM
Chain of WT NRAS-BRAF complex (P62937 whole entry, looked up): as the sequence (P62937 whole entry) above
Experimental: as §3

Q: Which results are given for `CO[C@@H](C)c1ncc(N2CCN(C)CC2)cc1-c1c2c3cc(cc4c3n1CCO4)-c1csc(n1)C[C@H](NC(=O)C1CC1c1ccc(F)cc1)C(=O)N1CCC[C@H](N1)C(=O)OCC(C)(C)C2` (stereo partly drawn) [Example 59, 2-(4-fluorophenyl)-N-[(7S,13S)-(20M)-20-[2-[(1S)-1-methoxyethyl]-5-(4-methylpiperazin-1-yl)-3-pyridyl]-17,17-dimethyl-8,14-dioxo-15,24-dioxa-4-thia-9,21,30,31-tetrazahexacyclo[23.3.1.1^2,5.1^9,13.0^19,27.0^21,26]hentriaconta-1 (29),2,5 (31),19,25,27-hexaen-7-yl]cyclopropanecarboxamide]?
A: IC50 [1]: 0.003 µM; IC50 [2]: 0.0088 µM; IC50 [3]: 0.0213 µM; IC50 (KRAS G12C-BRAF complex): 0.0167 µM; IC50 (AGS cells (KRAS G12D)): 0.0872 µM; IC50 (SW620 cells (KRAS G12V)): 0.0074 µM; IC50 [4]: 0.0337 µM

Q: For `CO[C@@H](C)c1ncc(N2CCN(CCOC3CCOC3)CC2)cc1-c1c2c3cc(cc4c3n1CCC4)-c1csc(n1)C[C@H](NC(=O)[C@H]1[C@H](C)[C@@H]1C)C(=O)N1CCC[C@H](N1)C(=O)OCC(C)(C)C2` (stereo partly drawn) [Example 122, (1r,2R,3S)-N-[(7S,13S)-(20M)-20-[2-[(1S)-1-methoxyethyl]-5-[4-(2-tetrahydrofuran-3-yloxyethyl)piperazin-1-yl]-3-pyridyl]-17,17-dimethyl-8,14-dioxo-15-oxa-4-thia-9,21,30,31-tetrazahexacyclo[23.3.1.1^2,5.1^9,13.0^19,27.0^21,26]hentriaconta-1 (28),2,5 (31), 19,25 (29),26-hexaen-7-yl]-2,3-dimethyl-cyclopropanecarboxamide], which IC50 [1] is on record?
A: The IC50 was 0.0002 µM.

Q: What about the IC50 [2] of the same molecule?
A: The IC50 was 0.0006 µM.

Q: What about the IC50 [3] of the same molecule?
A: Its IC50 is 0.0035 µM.

Q: What about the IC50 (KRAS G12C-BRAF complex) of the same molecule?
A: Its IC50 is 0.0151 µM.

Q: What about the IC50 (AGS cells (KRAS G12D)) of the same molecule?
A: Its IC50 is 0.0034 µM.

Q: And the IC50 (SW620 cells (KRAS G12V))?
A: The IC50 was 0.0005 µM.

Q: And the IC50 [4]?
A: Its IC50 is 0.0018 µM.

Q: Which IC50 (hERG potassium channel) does the source give for `CCn1c(-c2cc(N3CCN(C)CC3)cnc2[C@H](C)OC)c2c3cc(ccc31)-c1csc(n1)C[C@H](NC(=O)[C@H]1[C@H](C)[C@@H]1C)C(=O)N1CCC[C@H](N1)C(=O)OCC(C)(C)C2` [Example A252, reference compound] here?
A: Its IC50 is 11 µM.

Q: And the IC20 (hERG potassium channel; human, CHO cells stably transfected with hERG channel)?
A: Its IC20 is 3 µM.

Q: And the IC50 (KRAS G12V-BRAF complex)?
A: The IC50 was 0.009 µM.

Q: And the IC50 (WT HRAS-BRAF complex)?
A: Its IC50 is 0.023 µM.

Q: What about the clearance ([5]; iv, 3 mg/kg) of the same molecule?
A: Its clearance is 37.8 mL/min/kg.

Q: What about the AUC(0-t) ([5]; po, 30 mg/kg) of the same molecule?
A: The AUC(0-t) was 14600 ng·h/mL.

Q: What about the Cmax ([5]; po, 30 mg/kg, po, read-out: Cmax) of the same molecule?
A: The Cmax was 2440 ng/mL.

Q: And the IC50 (WT KRAS-BRAF complex)?
A: Its IC50 is 0.018 µM.

Q: And the “Hepatic clearance (Human)” value (human hepatocytes)?
A: The value was 9.2 mL/min/kg.

Q: And the IC50 (WT NRAS-BRAF complex)?
A: Its IC50 is 0.019 µM.
